We go through seven substances from patent US4122179A, “Acid addition salts of vincamine and apovincamine” (priority 1976, dated 1978).

A short description of data set [1]: Hematic levels at different times after oral administration (absorption). It counts as in vivo, Wistar rat. The note with it: 100 mg/kg expressed as vincamine/apovincamine, 5% carboxymethyl cellulose suspension. The gist of the method:
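Wistar rats dosed orally at 100 mg/kg (expressed as vincamine or apovincamine) as a suspension in 5% carboxymethyl cellulose. Blood levels measured chromatographically at 0, 30, 120, 240, 480 min, 10 h and 12 h to define absorption and time of maximum concentration.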

The nature of data set [2]: LD50 / acute toxicity, intraperitoneal route. Type of data set: in vivo. The note with it: i.p.; for Toxicity (Gleason): Gleason class in words, classes not defined.
A further data set can be described thus: Solubility. The note with it: qualitative; for solubility in alcohol: alcohol (ethyl alcohol). Type of data set: physicochemical.
For another data set, the system named is vertebral arteria. Description: Cerebral vasodilating activity: hematic flow at the vertebral arteria after i.v. administration. It counts as in vivo. The note with it: i.v. (femoral vein), 5 mg/kg of vincamine/apovincamine, anesthetized dog, 4 animals per compound. The gist of the method:
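In anesthetized dogs, groups of 4 per compound, left vertebral artery blood flow recorded with periarterial electromagnetic flowmeters after i.v. dosing. Values are percent change in flow.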

One may read the LD50 as the dose at which mortality reaches 50%. As for Apovincamine alginate [Example 23.b], the Max. conc. time in data set [1] turned out to be 60 min. Besides, in data set [2], the median lethal dose (LD50) amounted to 750 mg/kg and the “Toxicity (Gleason)” value was “modest”. Also, in the data set “Solubility”, the solubility in alcohol entry was “insoluble” and the solubility in water entry is listed as “insoluble”. Further, in the data set with vertebral arteria, the “% increase (percent variation of hematic flow, left vertebral arteria)” value came to 38.0%.
In data set [1], “Apovincamine-pectin (1:1 adduct) [Example 30.b]” had a Max. conc. time of 60 min. For the same substance, in data set [2], the LD50 worked out at 750 mg/kg and the “Toxicity (Gleason)” value is “modest”. For the same substance, the solubility in alcohol entry in “Solubility” was “little soluble”. The “% increase (percent variation of hematic flow, left vertebral arteria)” value in the data set on vertebral arteria is reported as 39.6%.
Turning to “Apovincamine-pectin (2:1 adduct) [Example 31.b]”, the Max. conc. time in data set [1] worked out at 480 min. Besides, in data set [2], the LD50 is 900 mg/kg and the “Toxicity (Gleason)” value is reported as “light”. In “Solubility”, the solubility in alcohol result is given as “poorly soluble” and the solubility in water result is given as “insoluble”. The “% increase (percent variation of hematic flow, left vertebral arteria)” value in the data set with vertebral arteria worked out at 28.2%.
On to Vincamine alginate [Example 23.a], for which, in data set [1], the Max. conc. time was determined as 20 min. Moreover, in data set [2], the LD50 turned out to be 550 mg/kg and the “Toxicity (Gleason)” value was “modest”. In the data set “Solubility”, the “solubility in the common (organic) solvents” value (from here on “solubility in the common”) is “insoluble” and the solubility in water entry is given as “insoluble”. Further, the “% increase (percent variation of hematic flow, left vertebral arteria)” value in the data set with vertebral arteria is 34.7%.
In data set [1], “Vincamine pectin (1:1 adduct) [Example 30.a]” showed a Max. conc. time of 20 min. Moreover, in data set [2], the LD50 worked out at 2000 mg/kg and the “Toxicity (Gleason)” value was “negligible”. In addition, in the data set “Solubility”, the “solubility in the common” value is “insoluble” and the solubility in water entry was “insoluble”. Moreover, the “% increase (percent variation of hematic flow, left vertebral arteria)” value with vertebral arteria worked out at 40.0%.
In data set [1], Vincamine tannate [Example 24.a] had a Max. conc. time of 240 min. Besides, in data set [2], the LD50 is reported as 700 mg/kg and the “Toxicity (Gleason)” value was “modest”. Besides, the solubility in alcohol entry in the data set “Solubility” is on record as “soluble”. The “% increase (percent variation of hematic flow, left vertebral arteria)” value in the data set with vertebral arteria is listed as 26.2%.
In turn, “Vincamine-pectin (2:1 adduct) [Example 31.a]” displayed a Max. conc. time in data set [1] of 240 min. Further, in data set [2], the LD50 amounted to 2000 mg/kg and the “Toxicity (Gleason)” value is listed as “negligible”. For the same substance, in “Solubility”, the “solubility in the common” value is reported as “practically insoluble” and the solubility in water entry is “practically insoluble”. For the same substance, in the data set on vertebral arteria, the “% increase (percent variation of hematic flow, left vertebral arteria)” value is recorded as 24.9%.
